# Test results: patent US11964980B2, “Crystalline forms of (S)-1-(4-fluorophenyl)-1-(2-(4-(6-(1-methyl-1H-pyrazol-4-yl)pyrrolo[2,1- f][1,2,4]triazin-4-yl)piperazinyl)-pyrimidin-5-yl)ethan-1-amine and methods of making” (Blueprint Medicines Corporation, priority 2019, dated 2024)
# Entries after “also recorded” stand apart in the source; their conditions may differ.
# Assays:
# KIT D816V = KIT D816V (Homo sapiens, UniProt P10721, D816V); test: Activity in vitro against KIT D816V
# [1] = test system: patients with indolent systemic mastocytosis; test: Phase 2 PIONEER trial Part 1: ISM-SAF symptom scores and MC-QoL; format: in vivo, human
# Procedure: (§1) This is a Phase 2, randomized, double-blind, placebo-controlled study comparing the efficacy and safety of Compound (I)+best supportive care (BSC) with placebo+BSC in patients with ISM and SSM whose symptoms are not adequately controlled by BSC. The study is conducted in three parts. In Part 1, the optimal dose Compound (I) (recommended phase 2 dose (RP2D)) was identified in patients with ISM. In Part 2, patients with ISM and SSM are randomly assigned to the RP2D of Compound (I) identified in Part 1+BSC, or to matching placebo+BSC. In Part 3, patients who have completed treatment in Part 1 or Part 2 of the study participate in a long-term extension, receiving Compound (I) at the RP2D+BSC.
# In Part 1, immediately after informed consent was obtained, management of SM symptoms was optimized, and BSC medication doses and schedules for SM symptom management were stabilized, if needed, over four weeks. Within five days after informed consent is obtained, ISM-SAF (ISM Symptom Assessment Form) data collection begins. The number of anaphylactic episodes treated with epinephrine and all concomitant medications received for any indication were collected from the time of informed consent.
# Once BSC was optimized (between Day −98 and Day −71) and doses were stable for ≥14 days, ISM-SAF data was collected for an additional 14 days to determine eligibility based on symptom severity i.e., to identify ISM and SSM patients having moderate-to-severe symptoms. Patients not meeting the symptom severity threshold were deemed screen failures and were not eligible for study participation. Patients having moderate-to-severe symptoms and meeting the threshold for symptom severity began other screening procedures, including the following: Bone marrow (BM) biopsy (an archival sample obtained within the preceding 24 weeks or a fresh sample) and skin biopsy of lesional and nonlesional skin (in patients with cutaneous mastocytosis (CM)) were performed for confirmation of SM diagnosis and quantification of mast cells (MCs); patients with CM (maculopapular) had skin photographs taken. Additional procedures include: magnetic resonance imaging/computed tomography scan of the brain; bone densitometry; serum tryptase, KIT D816 mutation testing; routine laboratory testing; ECG; and physical examination. All procedures are completed within a 6-week period before the final 14-day collection of baseline ISM-SAF symptoms is initiated.
# Once screening procedures were completed, patients had ISM-SAF data collected for another 2 weeks (14 days) to establish baseline scores, after which patients meeting all eligibility requirements were randomly assigned to treatment and began dosing.
# (§2) In Part 1 of the study, approximately 40 patients were randomly assigned to 1 of 3 doses of Compound (I) or to placebo. Each dose-level cohort and placebo group in Part 1 was composed of 10 patients. The 3 dose levels of Compound (I) were tested in parallel: 25, 50, and 100 mg. Patients, study staff, and the Sponsor were blinded to treatment assignment.
# (§3) Compound (I) was administered orally, once a day in continuous 28-day cycles. Patients were assessed weekly for the first 4 weeks, then every 4 weeks (until the RP2D was determined) for safety, laboratory monitoring, and quality of life (QoL) assessments. Intensive pharmacokinetic (PK) sampling was performed in all patients. The ISM-SAF was completed once a day. After completion of 12 weeks of treatment, BM and skin biopsy were repeated for MC quantification and skin photographs were taken in patients with baseline CM.
# The RP2D was determined based on the efficacy, safety, and PK at each dose level. The primary evaluation of efficacy was the symptom improvement using the ISM-SAF. The primary criterion for selection of the RP2D was the dose of Compound (I) that produces the maximum reduction in total symptom score (TSS), as assessed using the ISM-SAF at Week 12 compared with Baseline (Day −14 to Day −1). […]
# [2] = test system: patients with indolent systemic mastocytosis; test: Phase 2 PIONEER trial Part 1: safety; format: in vivo, human
# Procedure: as §1, §2, §3
# Part 1 of the PIONEER trial was designed to determine the RP2D by evaluating three doses of Compound (I) (25 mg, 50 mg and 100 mg QD) versus placebo. Key eligibility criteria include adults with ISM confirmed by central pathology review of bone marrow biopsy (according to WHO criteria) and moderate-to-severe symptom burden despite best supportive care medicines. Overall, 39 patients were enrolled in Part 1 across four concurrent cohorts, consisting of 10 patients each in the Compound (I) dose cohorts and nine patients in the placebo cohort.
# Chain of KIT D816V (P10721 26-976 D816V): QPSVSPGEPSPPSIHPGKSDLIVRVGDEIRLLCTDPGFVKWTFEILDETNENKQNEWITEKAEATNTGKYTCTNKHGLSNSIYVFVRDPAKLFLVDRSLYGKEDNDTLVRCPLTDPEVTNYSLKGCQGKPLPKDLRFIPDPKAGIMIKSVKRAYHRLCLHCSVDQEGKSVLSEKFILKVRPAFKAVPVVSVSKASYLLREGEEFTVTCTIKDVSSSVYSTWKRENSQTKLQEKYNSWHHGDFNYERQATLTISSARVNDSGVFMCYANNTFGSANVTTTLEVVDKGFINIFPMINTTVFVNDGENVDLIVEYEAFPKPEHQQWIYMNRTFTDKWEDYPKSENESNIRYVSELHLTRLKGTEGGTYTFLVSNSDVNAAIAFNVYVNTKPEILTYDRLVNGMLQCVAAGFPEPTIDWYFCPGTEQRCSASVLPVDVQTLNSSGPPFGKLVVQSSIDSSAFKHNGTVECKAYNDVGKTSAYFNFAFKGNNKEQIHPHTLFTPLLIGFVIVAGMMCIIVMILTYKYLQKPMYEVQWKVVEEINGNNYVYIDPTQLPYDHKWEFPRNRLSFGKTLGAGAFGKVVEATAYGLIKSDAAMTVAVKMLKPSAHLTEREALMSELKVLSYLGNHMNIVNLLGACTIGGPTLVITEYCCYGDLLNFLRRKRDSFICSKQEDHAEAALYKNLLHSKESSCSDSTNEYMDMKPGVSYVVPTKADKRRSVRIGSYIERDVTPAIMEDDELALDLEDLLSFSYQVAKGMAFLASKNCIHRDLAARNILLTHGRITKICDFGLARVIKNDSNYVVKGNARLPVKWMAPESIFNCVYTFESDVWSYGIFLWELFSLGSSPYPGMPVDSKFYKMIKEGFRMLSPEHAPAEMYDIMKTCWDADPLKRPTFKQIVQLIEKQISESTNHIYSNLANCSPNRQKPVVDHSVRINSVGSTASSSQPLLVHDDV
compound,measurement,setting,value
"Cn1cc(-c2cc3c(N4CCN(c5ncc([C@@](C)(N)c6ccc(F)cc6)cn5)CC4)ncnn3c2)cn1 [Compound (I), (S)-1-(4-fluorophenyl)-1-(2-(4-(6-(1-methyl-1H-pyrazol-4-yl)pyrrolo[2,1-f][1,2,4]triazin-4-yl)piperazin-1-yl)pyrimidin-5-yl)ethan-1-amine]",Activity in vitro against KIT D816V,KIT D816V,potent and selective activity
same,Mean percent change in ISM-SAF TSS,"[1]; 25 mg QD (n = 9), at 16 weeks",−31%
same,Mean percent change in ISM-SAF gastrointestinal domain,"[1]; 25 mg QD (n = 9), at 16 weeks",−25%
same,Mean percent change in ISM-SAF neurological symptoms,"[1]; 25 mg QD (n = 9), at 16 weeks",−26%
same,Mean percent change in ISM-SAF skin domain,"[1]; 25 mg QD (n = 9), at 16 weeks",−37%
same,Mean reduction in total MC-QoL score,"[1]; 25 mg QD (seven patients), 16 weeks",34%
same,"Mean reduction in total symptom score (TSS), ISM-SAF","[1]; 25 mg QD, baseline to 16 weeks",31%
same,"Quality of life, MC-QoL overall score and domain scores","[1]; 25 mg QD, week 16",improvements in quality of life; also recorded: improvements in all four domains
same,Reduction in ISM-SAF TSS and each symptom in the total domain score,"[1]; 25 mg once daily, 16 weeks",statistically significant reduction
same,Mean improvement in ISM-SAF TSS,"[1]; across all Compound (I) dose cohorts, 16 weeks, p=0.001 vs placebo",approximately 30%
same,Grade of all adverse events reported,[2]; 25 mg QD dose cohort,Grade 1 or 2
same,"Patients with serious AEs, Grade 3 or higher AEs, or dose modifications",[2]; 25 mg QD dose cohort,No patients
same,Grade ≥3 AEs,[2]; 25 mg once daily cohort,No grade ≥3 AEs
same,% of subjects with ≥1 AE,"[2]; 25 mg, n = 10, any grade",100%
same,AE Bone Pain,"[2]; 25 mg, n = 10, any grade",0%
same,AE Diarrhea,"[2]; 25 mg, n = 10, any grade",0%
same,AE Dizziness,"[2]; 25 mg, n = 10, any grade",30%
same,AE Face edema,"[2]; 25 mg, n = 10, any grade",10%
same,AE Fatigue,"[2]; 25 mg, n = 10, any grade",40%
same,AE Headache,"[2]; 25 mg, n = 10, any grade",30%
same,AE Nausea,"[2]; 25 mg, n = 10, any grade",10%
same,AE Periorbital edema,"[2]; 25 mg, n = 10, any grade",0%
same,AE Peripheral edema,"[2]; 25 mg, n = 10, any grade",10%
same,% of subjects with ≥1 AE,"[2]; 25 mg, n = 10, grade 3",0%
same,AE Bone Pain,"[2]; 25 mg, n = 10, grade 3",0%
same,AE Diarrhea,"[2]; 25 mg, n = 10, grade 3",0%
same,AE Dizziness,"[2]; 25 mg, n = 10, grade 3",0%
same,AE Face edema,"[2]; 25 mg, n = 10, grade 3",0%
same,AE Fatigue,"[2]; 25 mg, n = 10, grade 3",0%
same,AE Headache,"[2]; 25 mg, n = 10, grade 3",0%
same,AE Nausea,"[2]; 25 mg, n = 10, grade 3",0%
same,AE Periorbital edema,"[2]; 25 mg, n = 10, grade 3",0%
same,AE Peripheral edema,"[2]; 25 mg, n = 10, grade 3",0%
same,% of subjects with ≥1 AE,"[2]; 50 mg, n = 10, any grade",80%
same,AE Bone Pain,"[2]; 50 mg, n = 10, any grade",0%
same,AE Diarrhea,"[2]; 50 mg, n = 10, any grade",40%
same,AE Dizziness,"[2]; 50 mg, n = 10, any grade",30%
same,AE Face edema,"[2]; 50 mg, n = 10, any grade",0%
same,AE Fatigue,"[2]; 50 mg, n = 10, any grade",10%
same,AE Headache,"[2]; 50 mg, n = 10, any grade",30%
same,AE Nausea,"[2]; 50 mg, n = 10, any grade",60%
same,AE Periorbital edema,"[2]; 50 mg, n = 10, any grade",20%
same,AE Peripheral edema,"[2]; 50 mg, n = 10, any grade",20%
same,% of subjects with ≥1 AE,"[2]; 50 mg, n = 10, grade 3",20%
same,AE Bone Pain,"[2]; 50 mg, n = 10, grade 3",0%
same,AE Diarrhea,"[2]; 50 mg, n = 10, grade 3",10%
same,AE Dizziness,"[2]; 50 mg, n = 10, grade 3",0%
same,AE Face edema,"[2]; 50 mg, n = 10, grade 3",0%
same,AE Fatigue,"[2]; 50 mg, n = 10, grade 3",0%
same,AE Headache,"[2]; 50 mg, n = 10, grade 3",10%
same,AE Nausea,"[2]; 50 mg, n = 10, grade 3",10%
same,AE Periorbital edema,"[2]; 50 mg, n = 10, grade 3",0%
same,AE Peripheral edema,"[2]; 50 mg, n = 10, grade 3",0%
same,% of subjects with ≥1 AE,"[2]; 100 mg, n = 10, any grade",90%
same,AE Bone Pain,"[2]; 100 mg, n = 10, any grade",0%
same,AE Diarrhea,"[2]; 100 mg, n = 10, any grade",30%
same,AE Dizziness,"[2]; 100 mg, n = 10, any grade",40%
same,AE Face edema,"[2]; 100 mg, n = 10, any grade",40%
same,AE Fatigue,"[2]; 100 mg, n = 10, any grade",10%
same,AE Headache,"[2]; 100 mg, n = 10, any grade",30%
same,AE Nausea,"[2]; 100 mg, n = 10, any grade",40%
same,AE Periorbital edema,"[2]; 100 mg, n = 10, any grade",30%
same,AE Peripheral edema,"[2]; 100 mg, n = 10, any grade",20%
same,% of subjects with ≥1 AE,"[2]; 100 mg, n = 10, grade 3",40%
same,AE Bone Pain,"[2]; 100 mg, n = 10, grade 3",0%
same,AE Diarrhea,"[2]; 100 mg, n = 10, grade 3",10%
same,AE Dizziness,"[2]; 100 mg, n = 10, grade 3",0%
same,AE Face edema,"[2]; 100 mg, n = 10, grade 3",0%
same,AE Fatigue,"[2]; 100 mg, n = 10, grade 3",0%
same,AE Headache,"[2]; 100 mg, n = 10, grade 3",10%
same,AE Nausea,"[2]; 100 mg, n = 10, grade 3",0%
same,AE Periorbital edema,"[2]; 100 mg, n = 10, grade 3",0%
same,AE Peripheral edema,"[2]; 100 mg, n = 10, grade 3",0%
same,Tolerability,"[2]; all doses (25, 50, 100 mg QD)",well-tolerated
same,Discontinuation of treatment due to AEs,"[2]; all doses, as of data cutoff",no discontinuations for adverse effects; also recorded: no patients discontinued treatment due to AEs
